Results reported in publication PMC7855930, “Nontoxic Cobalt(III) Schiff Base Complexes with Broad‐Spectrum Antifungal Activity” (Chemistry (Weinheim an Der Bergstrasse, Germany), 2020).

Legend:
[1] = Stability in water by 1H NMR (axial ligand exchange); type: physicochemical; details: room temperature
Source text: Because our previous results had shown that complexes bearing weak axial donors are more biologically active, we sought to synthesise a very labile Co^III‐bis(thiosemicarbazone) complex by using a weakly donating pyridine axial monodentate ligand. We were unable to synthesise a complex using unsubstituted pyridine, probably because it is a such a weak donor ligand that it will not remain bound to the Co^III center even briefly, preventing isolation of the complex. However, we were able to isolate a complex (3) bearing the more electron‐donating 4‐(dimethylamino)pyridine (DMAP) ligand in the axial positions. As expected, this complex is extremely labile. […] In our hands, the bis‐aqua complex could not be isolated.

CO-ADD bacterial panel = assay: CO-ADD bacterial panel, overall antibacterial activity; type: cell-based; details: CO‐ADD screening, Table S2
Description: CO-ADD High Throughput Screening
Bacterial broth microdilution minimum inhibitory concentration (MIC) assay Bacterial strains were cultured in Cation-adjusted Mueller Hinton broth (CAMHB; Bacto Laboratories 212322) at 37 °C overnight. A sample of each culture was then diluted 40-fold in fresh CAMHB and incubated at 37 °C for 1.5-3 h. The resultant mid-log phase cultures were diluted with CAMHB (CFU/mL measured by OD600), then added to each well of the compound-containing plates (384-well non-binding surface (NBS) plates; Corning CLS3640), giving a cell density of 5 × 10^5 CFU/mL and a total volume of 50 µL. Plates were covered and incubated at 37 °C for 18 h without shaking. Inhibition of bacterial growth was determined measuring absorbance at 600 nm (OD600), using media only as negative control and bacteria without inhibitors as positive control. MIC values were determined as the lowest concentration at which the growth was inhibited at ≥ 80%. Colistin sulfate (Sigma C4461) and vancomycin HCl (Sigma 861987) were used as positive inhibitor controls on each plate for Gram-negative and Gram-positive bacteria, respectively.
Figure S1. 1H NMR (400 MHz) of [Co(ATS)(DMAP)2]NO3 (3) in DMSO-d6.
(1 picture or pasted object on this page, not shown here)

Structure (SMILES)	Stability on dissolution in water ([1]; 1H NMR, on dissolution)	Stability in water overnight ([1]; incubation overnight)	Antibacterial activity (CO-ADD bacterial panel)
CC1=[N+]2N=C(N)[S][Co-3]23([n+]2ccc(N(C)C)cc2)([n+]2ccc(N(C)C)cc2)[S]C(N)=N[N+]3=C1C.O=[N+]([O-])[O-] [Compound 3, [Co(ATS)(DMAP)2]NO3]	immediately yields a mixture of species	totally converted into the bis‐aqua complex	–
O=[N+]([O-])[O-].[NH3+][Co-3]123([NH3+])[O]c4c(F)cccc4C=[N+]1c1ccccc1[N+]2=Cc1cccc(F)c1[O]3 [Compound 7, [Co(3F‐salophen)(NH3)2]NO3]	–	–	neither antibacterial nor antifungal activity
